The test deals with T1, MAGL (Homo sapiens, UniProt Q99685).
T1 sequence (Q99685 1-303): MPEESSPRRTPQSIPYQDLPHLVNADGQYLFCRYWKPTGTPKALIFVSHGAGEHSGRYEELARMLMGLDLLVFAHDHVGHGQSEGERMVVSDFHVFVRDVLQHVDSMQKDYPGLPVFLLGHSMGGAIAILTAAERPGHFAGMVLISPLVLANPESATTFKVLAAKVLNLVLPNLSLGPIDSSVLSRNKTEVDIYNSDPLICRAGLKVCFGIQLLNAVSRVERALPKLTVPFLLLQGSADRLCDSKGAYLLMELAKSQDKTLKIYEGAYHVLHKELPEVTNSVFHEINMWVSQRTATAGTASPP
Briefly: MAGL inhibition, 2-AG assay (hydrolysis of 2-arachidonoylglycerol, arachidonic acid by mass spectrometry). Format: biochemical. The settings on record: 2-AG assay (footnote [b]). In short, it runs like this: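 Human MAGL […] was preincubated 15 min at RT with compound ([…], 3-fold steps) in 50 mM Tris, 1 mM EDTA, 0.01% Tween. 2-AG (8 μM) was then added for 30 min at RT. Arachidonic acid was quantified by RapidFire SPE–triple quadrupole MS in negative ESI as its ratio to a d8-arachidonic acid standard.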

From patent publication US20230117324A1, “OXAZINE MONOACYLGLYCEROL LIPASE (MAGL) INHIBITORS” (Hoffmann-La Roche Inc., priority 2018, published 2023) come the findings set out here.

Each structure is given as a SMILES string.

On to `O=C1CO[C@H]2CCN(C(=O)N3CC(C(O)(c4ccc(F)cc4)c4ccc(F)cc4)C3)C[C@H]2N1` [Example 54, (4aR,8aS)-6-(3-(Bis(4-fluorophenyl)(hydroxy)methyl)azetidine-1-carbonyl)hexahydro-2H-pyrido[4,3-b][1,4]oxazin-3(4H)-one], for which the midpoint of inhibition, the IC50, lay at 804 nM.
The same measure for `O=C1CO[C@H]2CCN(C(=O)N3CC(C(F)(c4ccc(F)cc4)c4ccc(F)cc4)C3)C[C@H]2N1` [Example 55, (4aR,8aS)-6-(3-(Fluorobis(4-fluorophenyl)methyl)azetidine-1-carbonyl)hexahydro-2H-pyrido[4,3-b][1,4]oxazin-3(4H)-one]: 419 nM.
The same measure for `O=C1CO[C@H]2CCN(C(=O)N3CCC(C(COCC(F)(F)F)c4ccc(F)cc4)CC3)C[C@H]2N1` (stereo partly drawn) [Example 56, (4aR,8aS)-6-(4-(1-(4-Fluorophenyl)-2-(2,2,2-trifluoroethoxy)ethyl)piperidine-1-carbonyl)hexahydro-2H-pyrido[4,3-b][1,4]oxazin-3(4H)-one]: 21 nM; for `O=C1CO[C@H]2CCN(C(=O)N3CCC(c4ccnc(C5CC5)c4)CC3)C[C@H]2N1` [Example 61, (4aR,8aS)-6-(4-(2-Cyclopropylpyridin-4-yl)piperidine-1-carbonyl)hexahydro-2H-pyrido[4,3-b][1,4]oxazin-3(4H)-one]: 569 nM; for `O=C1CO[C@H]2CCN(C(=O)N3CCC(C(Oc4ccc(F)cc4Cl)C(F)(F)F)CC3)C[C@H]2N1` (stereo partly drawn) [Example 81, (4aR,8aS)-6-(4-(1-(2-Chloro-4-fluorophenoxy)-2,2,2-trifluoroethyl)piperidine-1-carbonyl)hexahydro-2H-pyrido[4,3-b][1,4]oxazin-3(4H)-one]: 3 nM.
For `CC(c1ccc(C(F)(F)F)cc1)C1CN(C(=O)N2CC[C@@H]3OCC(=O)N[C@@H]3C2)C1` (stereo partly drawn) [Example 83, (4aR,8aS)-6-[3-[1-[4-(Trifluoromethyl)phenyl]ethyl]azetidine-1-carbonyl]-4,4a,5,7,8,8a-hexahydropyrido[4,3-b][1,4]oxazin-3-one] the value was 114 nM.
`O=C1CO[C@H]2CCN(C(=O)N3CC(C(c4ccccc4)c4ccccc4)C3)C[C@H]2N1` [Example 86, (4aR,8aS)-6-(3-Benzhydrylazetidine-1-carbonyl)hexahydro-2H-pyrido[4,3-b][1,4]oxazin-3(4H)-one]: the IC50 (as a rule, the concentration needed to halve the response being measured) worked out at 155 nM.
On to `CC(OC1CN(C(=O)N2CC[C@@H]3OCC(=O)N[C@@H]3C2)C1)c1ccc(C(F)(F)F)cc1` (stereo partly drawn) [Example 90, (4aR,8aS)-6-[3-[1-[4-(Trifluoromethyl)phenyl]ethoxy]azetidine-1-carbonyl]-4,4a,5,7,8,8a-hexahydropyrido[4,3-b][1,4]oxazin-3-one], for which the IC50 was 49 nM.
The same measure for `CC(Oc1ccc(C(F)(F)F)cc1F)C1CN(C(=O)N2CC[C@@H]3OCC(=O)N[C@@H]3C2)C1` (stereo partly drawn) [Example 91, (4aR,8aS)-6-(3-(1-(2-Fluoro-4-(trifluoromethyl)phenoxy)ethyl)azetidine-1-carbonyl)hexahydro-2H-pyrido[4,3-b][1,4]oxazin-3(4H)-one]: 15 nM; for `CC(Oc1ccc(C(F)(F)F)cc1)C1CN(C(=O)N2CC[C@@H]3OCC(=O)N[C@@H]3C2)C1` (stereo partly drawn) [Example 92, (4aR,8aS)-6-(3-(1-(4-(Trifluoromethyl)phenoxy)ethyl)azetidine-1-carbonyl)hexahydro-2H-pyrido[4,3-b][1,4]oxazin-3(4H)-one]: 20 nM; for `CC(OC1CCN(C(=O)N2CC[C@@H]3OCC(=O)N[C@@H]3C2)CC1)c1ccc(C(F)(F)F)cc1` (stereo partly drawn) [Example 93, (4aR,8aS)-6-[4-[1-[4-(Trifluoromethyl)phenyl]ethoxy]piperidine-1-carbonyl]-4,4a,5,7,8,8a-hexahydropyrido [4,3-b][1,4]oxazin-3-one]: 73 nM.
`Cc1cc(C2CCN(C(=O)N3CC[C@@H]4OCC(=O)N[C@@H]4C3)CC2)cnc1C(F)(F)F` [Example 101, (4aR,8aS)-6-(4-(5-Methyl-6-(trifluoromethyl)pyridin-3-yl)piperidine-1-carbonyl)hexahydro-2H-pyrido[4,3-b][1,4]oxazin-3(4H)-one] showed an IC50 of 219 nM.
Regarding `O=C1CO[C@H]2CCN(C(=O)N3CCC(C(c4ccc(F)cc4)c4nc(C(F)(F)F)no4)CC3)C[C@H]2N1` (stereo partly drawn) [Example 102, (4aR,8aS)-6-(4-((4-Fluorophenyl)(3-(trifluoromethyl)-1,2,4-oxadiazol-5-yl)methyl)piperidine-1-carbonyl)hexahydro-2H-pyrido[4,3-b][1,4]oxazin-3(4H)-one], it took 5 nM to reach half-maximal inhibition (IC50). Compared with the last compound, the IC50 is about 44-fold lower.
Take `O=C1CO[C@H]2CCN(C(=O)N3CCC(c4ccnc5c4CCCC5)CC3)C[C@H]2N1` [Example 107, (4aR,8aS)-6-(4-(5,6,7,8-Tetrahydroquinolin-4-yl)piperidine-1-carbonyl)hexahydro-2H-pyrido[4,3-b][1,4]oxazin-3(4H)-one]: the IC50 stood at 576 nM.
`O=C1CO[C@H]2CCN(C(=O)N3CC(c4ccc(Br)cc4)C3)C[C@H]2N1` [Example 110, (4aR,8aS)-6-[3-(4-bromophenyl)azetidine-1-carbonyl]-4,4a,5,7,8,8a-hexahydropyrido[4,3-b][1,4]oxazin-3-one] showed an IC50 of 29 nM.
For `O=C1CO[C@H]2CCN(C(=O)N3CC(c4ccc(-c5ccc(Cl)cc5)cc4)C3)C[C@H]2N1` [Example 111, (4aR,8aS)-6-(3-(4′-Chloro-[1,1′-biphenyl]-4-yl)azetidine-1-carbonyl)hexahydro-2H-pyrido[4,3-b][1,4]oxazin-3(4H)-one] the value was 0.4 nM; for `O=C1CO[C@H]2CCN(C(=O)N3CC(c4ccc(-c5ccccc5Cl)cc4)C3)C[C@H]2N1` [Example 112, (4aR,8aS)-6-(3-(2′-Chloro-[1,1′-biphenyl]-4-yl)azetidine-1-carbonyl)hexahydro-2H-pyrido[4,3-b][1,4]oxazin-3(4H)-one], 0.1 nM; for `O=C1CO[C@H]2CCN(C(=O)N3CC(c4ccc(-c5ccc(Cl)cc5Cl)cc4)C3)C[C@H]2N1` [Example 113, (4aR,8aS)-6-(3-(2′,4′-Dichloro-[1,1′-biphenyl]-4-yl)azetidine-1-carbonyl)hexahydro-2H-pyrido[4,3-b][1,4]oxazin-3(4H)-one], 0.04 nM.
The same measure for `O=C1CO[C@H]2CCN(C(=O)N3CC(c4ccc(OC(F)(F)F)cc4)C3)C[C@H]2N1` [Example 120, (4aR,8aS)-6-[3-[4-(Trifluoromethoxy)phenyl]azetidine-1-carbonyl]-4,4a,5,7,8,8a-hexahydropyrido[4,3-b][1,4]oxazin-3-one]: 7 nM.
For `O=C1CO[C@H]2CCN(C(=O)N3CC(c4ccc(-c5ccccc5OC(F)(F)F)cc4)C3)C[C@H]2N1` [Example 121, (4aR,8aS)-6-(3-(2′-(Trifluoromethoxy)-[1,1′-biphenyl]-4-yl)azetidine-1-carbonyl)hexahydro-2H-pyrido[4,3-b][1,4]oxazin-3(4H)-one], the IC50 was 0.03 nM.
`O=C1CO[C@H]2CCN(C(=O)N3CC(F)(c4ccc(Br)cc4)C3)C[C@H]2N1` [Example 122, (4aR,8aS)-6-(3-(4-Bromophenyl)-3-fluoroazetidine-1-carbonyl)hexahydro-2H-pyrido[4,3-b][1,4]oxazin-3(4H)-one] returned an IC50 of 90 nM.
In turn, `O=C1CO[C@H]2CCN(C(=O)N3CC(O)(c4ccc(Br)cc4)C3)C[C@H]2N1` [Example 123, (4aR,8aS)-6-(3-(4-Bromophenyl)-3-hydroxyazetidine-1-carbonyl)hexahydro-2H-pyrido[4,3-b][1,4]oxazin-3(4H)-one] registered an IC50 of 226 nM.
On to `CC1(c2ccc(Br)cc2)CN(C(=O)N2CC[C@@H]3OCC(=O)N[C@@H]3C2)C1` [Example 124, (4aR,8aS)-6-(3-(4-Bromophenyl)-3-methylazetidine-1-carbonyl)hexahydro-2H-pyrido[4,3-b][1,4]oxazin-3(4H)-one], for which the IC50 is 113 nM.
In the case of `O=C1CO[C@H]2CCN(C(=O)N3CC(c4ccc(-c5ccccc5C(F)(F)F)cc4)C3)C[C@H]2N1` [Example 125, (4aR,8aS)-6-(3-(2′-(Trifluoromethyl)-[1,1′-biphenyl]-4-yl)azetidine-1-carbonyl)hexahydro-2H-pyrido[4,3-b][1,4]oxazin-3(4H)-one], inhibition was half-maximal at 0.04 nM (IC50). Compared with the last compound, the IC50 is about 2800-fold lower.
Consider `O=C1CO[C@H]2CCN(C(=O)N3CC(c4ccc(-c5ccc(F)cc5F)cc4)C3)C[C@H]2N1` [Example 126, (4aR,8aS)-6-(3-(2′,4′-Difluoro-[1,1′-biphenyl]-4-yl)azetidine-1-carbonyl)hexahydro-2H-pyrido[4,3-b][1,4]oxazin-3(4H)-one], for which the IC50 turned out to be 0.3 nM.
For `N#Cc1ccccc1-c1ccc(C2CN(C(=O)N3CC[C@@H]4OCC(=O)N[C@@H]4C3)C2)cc1` [Example 127, 4′-(1-((4aR,8aS)-3-Cxooctahydro-2H-pyrido[4,3-b][1,4]oxazine-6-carbonyl)azetidin-3-yl)-[1,1′-biphenyl]-2-carbonitrile] the value was 0.5 nM.
With `COC1CN(c2ccc(C3CN(C(=O)N4CC[C@@H]5OCC(=O)N[C@@H]5C4)C3)cc2)C1` [Example 128, (4aR,8aS)-6-(3-(4-(3-Methoxyazetidin-1-yl)phenyl)azetidine-1-carbonyl)hexahydro-2H-pyrido[4,3-b][1,4]oxazin-3(4H)-one], the IC50 was 45 nM.
